Assay [1] addresses T1, cholera toxin B subunit (CTB) (Vibrio cholerae serotype O1, UniProt P01556). The assay is described as follows: biochemical. The format is binding.
The target in assay [2] is T2, tetanus toxin C fragment (TTC) (Clostridium tetani, UniProt P04958). The assay is described as follows: biochemical. It is filed as binding.
The target in assay [3] is T2, tetanus toxin C fragment (TTC). Conditions: read-out: KD Reported; cited from earlier work.
The next assay deals with mouse IgG (mouse). The assay is described as follows: magnetic relaxation.
The next assay concerns the target avidin (Gallus gallus, UniProt P02701). The assay is described as follows: bMR nanosensor competition assay, avidin-biotin. It is filed as binding. Conditions: control study with avidin bMR nanosensors.
The target in the next assay is Concanavalin A (Canavalia ensiformis, UniProt P02866). The following applies: read-out: KD Reported; cited from earlier work.
The target of assay [4] is T1, cholera toxin B subunit (CTB). The following applies: read-out: KD Reported; cited from earlier work.

Read-outs that look alike come from different tables or passages of the source.

T2 sequence (P04958 865-1315 limits assumed): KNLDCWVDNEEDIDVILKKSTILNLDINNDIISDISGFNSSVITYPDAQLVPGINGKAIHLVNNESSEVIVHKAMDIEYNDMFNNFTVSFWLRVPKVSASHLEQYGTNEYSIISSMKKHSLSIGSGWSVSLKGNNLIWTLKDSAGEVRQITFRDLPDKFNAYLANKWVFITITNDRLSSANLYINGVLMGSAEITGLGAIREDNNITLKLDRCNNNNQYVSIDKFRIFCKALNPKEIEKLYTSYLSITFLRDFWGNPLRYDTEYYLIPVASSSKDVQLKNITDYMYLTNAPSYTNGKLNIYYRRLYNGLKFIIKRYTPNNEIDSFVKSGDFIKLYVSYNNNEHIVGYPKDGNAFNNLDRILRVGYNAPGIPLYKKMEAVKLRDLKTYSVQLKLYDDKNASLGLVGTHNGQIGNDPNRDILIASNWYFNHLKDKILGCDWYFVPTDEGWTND
T1 sequence (P01556 22-124 limits assumed): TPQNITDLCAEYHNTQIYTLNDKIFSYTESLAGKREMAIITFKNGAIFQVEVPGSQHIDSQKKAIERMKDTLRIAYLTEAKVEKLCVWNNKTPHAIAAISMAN
Sequence of avidin (P02701 25-152, species assumed): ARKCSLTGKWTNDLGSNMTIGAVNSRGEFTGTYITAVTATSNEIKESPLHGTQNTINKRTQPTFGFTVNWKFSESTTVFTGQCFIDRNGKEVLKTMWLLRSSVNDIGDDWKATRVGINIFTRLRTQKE

In the case of `OC[C@H]1O[C@@H](O[C@H]2[C@H](O)[C@@H](O)C(O)O[C@@H]2CO)[C@H](O)[C@@H](O)[C@H]1O` (mixture of isomers) [Lactose, lactose], binding in assay [1] was characterised by a dissociation constant (Kd) of 88 µM.
On to `COc1cccc2c1C(=O)c1c(O)c3c(c(O)c1C2=O)C[C@@](O)(C(=O)CO)C[C@@H]3O[C@H]1C[C@H](N)[C@H](O)[C@H](C)O1` [Doxorubicin, doxorubicin], for which the values for the Kd in assay [2] and in assay [3] were 4.1 µM and 9.4 µM, respectively.
For `O=C[C@H](O)[C@@H](O)[C@@H](O)[C@H](O)CO` [Galactose, galactose], the Kd (as a rule, the free concentration of one partner at which half of the binding sites on the other are occupied at equilibrium, for simple one-to-one binding) in assay [1] stood at 3.5 µM.
On the same count and under the same terms, for `OC[C@H]1OC(O)[C@H](O)[C@@H](O)[C@@H]1O` (stereo partly drawn) [Glucose, glucose] the value was 36 µM.
Take `O=C(O)c1cc(O)c2c(c1)C(=O)c1cccc(O)c1C2=O` [Rhein, rhein]: the Kd in assay [2] came out at 33.6 µM.
The compound `OC[C@H]1O[C@@H]2O[C@H]3[C@H](O)[C@@H](O)[C@@H](O[C@H]4[C@H](O)[C@@H](O)[C@@H](O[C@H]5[C@H](O)[C@@H](O)[C@@H](O[C@H]6[C@H](O)[C@@H](O)[C@@H](O[C@H]7[C@H](O)[C@@H](O)[C@@H](O[C@H]8[C@H](O)[C@@H](O)[C@@H](O[C@H]1[C@H](O)[C@H]2O)O[C@@H]8CO)O[C@@H]7CO)O[C@@H]6CO)O[C@@H]5CO)O[C@@H]4CO)O[C@@H]3CO` [β-Cyclodextrin, β-cyclodextrin] registered an equilibrium dissociation constant (Kd) in assay [1] of 3.6 µM.
The compound “Protein G (from UniProt P06654 34-417) (natural protein)” showed a Kd with mouse IgG (mouse) of 0.4 pM.
For the compound bovine serum albumin, the “changes in magnetic relaxation” value in the assay with avidin is reported as “nominal changes”.
As for dextran, the values for the Kd (in assay [1]; at Concanavalin A; in assay [4]) were 4.9 µM, 0.09 µM and 14000 µM, respectively.

These data come from publication PMC3461998 (Angewandte Chemie (International ed. in English), 2012).
